Data on one molecule can be found in ChEMBL document CHEMBL5154926, “Discovery of a Novel Series of Imipridone Compounds as Homo sapiens Caseinolytic Protease P Agonists with Potent Antitumor Activities In Vitro and In Vivo” (J Med Chem, 2022).

≈ marks a conversion by molar mass, not a printed value.

For data set [1], the system named is HCT-116. In words: Induction of apoptosis in human HCT-116 cells assessed as viable cells at 25 nM incubated for 48 hrs by Annexin V/FITC staining based flow cytometric method (reference value: 97.66%). Format: functional. To be noted: read-out: Activity.
Data set [2] has as its system HCT-116. In words: Induction of apoptosis in human HCT-116 cells assessed as necrotic cells at 12.5 nM incubated for 48 hrs by Annexin V/FITC staining based flow cytometric method (reference value: 0.05%). Format: functional.
Data set [3] concerns HCT-116. Nature of the data set: Induction of apoptosis in human HCT-116 cells assessed as late apoptotic cells at 25 nM incubated for 48 hrs by Annexin V/FITC staining based flow cytometric method (reference value: 1.57%). Type of data set: functional.
The test system of data set [4] is HCT-116. Nature of the data set: Induction of ROS generation in human HCT-116 cells at 12.5 nM measured after 24 hrs by DHE staining based fluorescence assay (reference value: […] %). Type of data set: functional.
Data set [5] concerns HCT-116. In words: Induction of ROS generation in human HCT-116 cells at 50 nM measured after 24 hrs by DHE staining based fluorescence assay (reference value: […] %). Type of data set: functional.
The test system of data set [6] is HCT-116. In words: Induction of apoptosis in human HCT-116 cells assessed as early apoptotic cells at 12.5 nM incubated for 48 hrs by Annexin V/FITC staining based flow cytometric method (reference value: […]). Type of data set: functional.
For data set [7], the system named is HCT-116. Nature of the data set: Induction of apoptosis in human HCT-116 cells assessed as viable cells at 12.5 nM incubated for 48 hrs by Annexin V/FITC staining based flow cytometric method (reference value: 97.66%). To be noted: read-out: Activity. Type of data set: functional.
Data set [8] deals with HCT-116. In words: Induction of apoptosis in human HCT-116 cells assessed as late apoptotic cells at 12.5 nM incubated for 48 hrs by Annexin V/FITC staining based flow cytometric method (reference value: 1.57%). Format: functional.
The subject of data set [9] is HCT-116. In words: Induction of apoptosis in human HCT-116 cells assessed as late apoptotic cells at 50 nM incubated for 48 hrs by Annexin V/FITC staining based flow cytometric method (reference value: 1.57%). Type of data set: functional.
For data set [10], the system named is HCT-116. Nature of the data set: Induction of cell cycle arrest in human HCT-116 cells assessed as accumulation of cells at G0/G1 phase at 50 nM incubated for 48 hrs propidium iodide based flow cytometric analysis (reference value: 26 %). Format: functional.
Data set [11] in a line: Aqueous solubility of the compound agitated for 24 hrs by HPLC analysis. Format: physicochemical. Particulars: buffer.
In data set [12] the test system is HCT-116. In words: Induction of apoptosis in human HCT-116 cells assessed as early apoptotic cells at 25 nM incubated for 48 hrs by Annexin V/FITC staining based flow cytometric method (reference value: […]). Format: functional.
The nature of data set [13]: Stability in human liver microsomes assessed as half life at 1.5 uM measured upto 90 mins in presence of NADPH by LC/MS analysis. Type of data set: ADME, Microsome. To be noted: human liver microsomes.
Data set [14] deals with HCT-116. In words: Induction of apoptosis in human HCT-116 cells assessed as necrotic cells at 25 nM incubated for 48 hrs by Annexin V/FITC staining based flow cytometric method (reference value: 0.05%). Type of data set: functional.
Data set [15] has as its system HCT-116. Nature of the data set: Induction of apoptosis in human HCT-116 cells assessed as necrotic cells at 50 nM incubated for 48 hrs by Annexin V/FITC staining based flow cytometric method (reference value: 0.05%). Format: functional.
Data set [16] has as its system HCT-116. In words: Induction of apoptosis in human HCT-116 cells assessed as viable cells at 50 nM incubated for 48 hrs by Annexin V/FITC staining based flow cytometric method (reference value: 97.66%). Format: functional. Particulars: read-out: Activity.
Data set [17] is described as follows: Stability in rat liver microsomes assessed as half life at 1.5 uM measured upto 90 mins in presence of NADPH by LC/MS analysis. Type of data set: ADME, Microsome. To be noted: 1.5 h.
Data set [18] concerns HCT-116. In words: Induction of cell cycle arrest in human HCT-116 cells assessed as accumulation of cells at G0/G1 phase at 12.5 nM incubated for 48 hrs propidium iodide based flow cytometric analysis (reference value: 26 %). Type of data set: functional.
Data set [19] has as its system HCT-116. In words: Induction of ROS generation in human HCT-116 cells at 25 nM measured after 24 hrs by DHE staining based fluorescence assay (reference value: […] %). Format: functional.
Data set [20] is described as follows: 1-octanol/water partition coefficient, log P of the compound agitated for 4 hrs measured by shake flask assay based HPLC analysis. Format: physicochemical.
Data set [21] deals with HCT-116. In words: Induction of apoptosis in human HCT-116 cells assessed as early apoptotic cells at 50 nM incubated for 48 hrs by Annexin V/FITC staining based flow cytometric method (reference value: […]). Type of data set: functional.
Data set [22] is described as follows: Stability in human liver microsomes assessed as intrinsic clearance at 1.5 uM measured upto 90 mins in presence of NADPH by LC/MS analysis. Format: ADME, Microsome. Particulars: read-out: CLH.
For data set [23], the target named is Voltage-gated inwardly rectifying potassium channel KCNH2 (Homo sapiens, UniProt Q12809). Nature of the data set: Inhibition of hERG expressed in HEK293 cells by automated patch clamp assay. Format: toxicity, cell-based.
Chain of Voltage-gated inwardly rectifying potassium channel KCNH2 (Q12809 whole entry): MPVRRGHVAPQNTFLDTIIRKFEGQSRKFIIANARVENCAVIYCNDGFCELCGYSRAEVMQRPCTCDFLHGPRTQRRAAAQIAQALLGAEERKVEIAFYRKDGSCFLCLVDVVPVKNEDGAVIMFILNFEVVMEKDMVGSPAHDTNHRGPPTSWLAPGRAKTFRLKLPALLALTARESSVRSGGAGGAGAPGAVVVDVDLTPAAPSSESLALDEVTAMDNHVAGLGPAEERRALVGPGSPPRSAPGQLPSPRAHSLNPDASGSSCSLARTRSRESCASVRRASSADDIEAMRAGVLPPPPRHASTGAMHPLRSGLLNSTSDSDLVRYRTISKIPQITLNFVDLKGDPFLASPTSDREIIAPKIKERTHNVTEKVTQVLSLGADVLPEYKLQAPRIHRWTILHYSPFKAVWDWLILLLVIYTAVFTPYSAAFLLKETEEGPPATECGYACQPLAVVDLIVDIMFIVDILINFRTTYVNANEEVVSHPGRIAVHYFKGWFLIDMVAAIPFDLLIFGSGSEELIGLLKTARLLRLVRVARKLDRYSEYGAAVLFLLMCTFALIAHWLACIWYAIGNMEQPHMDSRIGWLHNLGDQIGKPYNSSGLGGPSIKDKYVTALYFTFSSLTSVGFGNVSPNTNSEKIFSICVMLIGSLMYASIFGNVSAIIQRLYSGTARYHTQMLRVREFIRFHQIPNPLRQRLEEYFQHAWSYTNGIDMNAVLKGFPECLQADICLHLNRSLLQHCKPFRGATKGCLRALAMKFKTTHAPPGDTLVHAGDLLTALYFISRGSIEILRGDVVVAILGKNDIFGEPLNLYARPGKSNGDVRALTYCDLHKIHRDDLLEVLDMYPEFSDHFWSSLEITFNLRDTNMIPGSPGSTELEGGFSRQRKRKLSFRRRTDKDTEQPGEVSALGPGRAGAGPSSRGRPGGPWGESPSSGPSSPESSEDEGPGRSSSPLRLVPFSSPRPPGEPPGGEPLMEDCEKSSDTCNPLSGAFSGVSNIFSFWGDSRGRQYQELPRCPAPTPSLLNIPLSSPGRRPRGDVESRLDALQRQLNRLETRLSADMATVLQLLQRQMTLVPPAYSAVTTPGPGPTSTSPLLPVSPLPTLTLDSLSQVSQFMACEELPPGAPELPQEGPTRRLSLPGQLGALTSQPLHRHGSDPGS

For the molecule `O=c1nc2n(c3c1CN(Cc1ccccc1)CC3)CCN2Cc1ccc(F)c(Br)c1`, in the data set on HCT-116 [1], the viability at […] came out at 94.7%. The Activity in the data set on HCT-116 [2] came to 0.07%; in the data set with HCT-116 [3], 3%; in the data set with HCT-116 [4], 99.46%; in the data set with HCT-116 [5] it was 99.4%; in the data set with HCT-116 [6], 1.27%; in the data set on HCT-116 [8], 2.82%. Also, the Activity in the data set with HCT-116 [9] was determined as 5.12%; with HCT-116 [10] it was 55%; in the data set on HCT-116 [12], 2.14%; with HCT-116 [14], 0.12%; in the data set with HCT-116 [15] it was 0.16%; in the data set on HCT-116 [18], 40%. Moreover, the Activity was 97.9% in the data set on HCT-116 [19] and 3.16% in the data set on HCT-116 [21]. Moreover, the viability at 0.0125 µM in the data set on HCT-116 [7] was 95.8%. Also, in data set [11], the solubility at 24 h was 100 µM (≈ 47.1 µg/mL). Besides, in data set [13], the half-life at 1.5 µM was 13 min. Also, the viability at 0.05 µM with HCT-116 [16] was 91.6%. In [17], the t1/2 was found to be 16.1 min. The logP at 4 h in data set [20] was determined as 3.21. Further, the CLint scaled at 1.5 µM in data set [22] was determined as 134 mL/min/kg. The IC50 in [23] came out at 4.91 µM.
